The source of these data is US4342766A, “Novel dihydro-as-triazino[5,6-c]quinoline derivatives and a process for the preparation thereof” (priority 1980, dated 1982).

SMILES strings stand for the structures.

Data set [1] in a line: Analgesic effect, acetic acid writhing test on mice. As to conditions: for ED50: Mus musculus, po, read-out: Analgesic effect ED50 p.o.; for Therapeutic index LD50/ED50 (analgesic effect): mice, p.o., acetic acid writhing. The procedure: The analgesic effect was studied by means of the acetic acid writhing test on mice. After the intraperitoneal administration of 0.4 ml of 0.5 percent acetic acid, the writhing responses were counted between the fifth and tenth minutes. The writhing number was calculated as the percentage of the control value. The compounds tested were orally administered to the animals 1 hour prior to the treatment with acetic acid. […] Paracetamole and phenylbutazone were used as reference substance.

Data set [2] can be described thus: Antiphlogistic effect, carrageenin paw test on rats (method of Winter). As to conditions: for ED50: Rattus norvegicus, po, 3 h, read-out: Antiphlogistic effect ED50 p.o.; for Therapeutic index LD50/ED50 (antiphlogistic effect): p.o., carrageenin paw test on rats, LD50 from mice. Background: In the carrageenan paw model, swelling and tenderness develop within hours.
Description: The antiphlogistic effect of the novel compounds of the invention was investigated on rats by the method of Winter [J. Pharm. […] 0.1 ml of a 1 percent carrageenin suspension was injected, subcutaneously, into the plantar region of one of the hind paws. The compounds to be tested were administered orally into the animals 1 hour before the injection of the carrageenine suspension. The volume of the treated paw was measured by mercury-plethysmometer before and 3 hours after injection.

Data set [3] can be described thus: Narcosis potentiating effect (hexobarbital sleeping time). It counts as in vivo, mice. As to conditions: for ED50: Mus musculus, read-out: Narcosis potentiating effect ED50 p.o.; for Therapeutic index LD50/ED50 (narcosis potentiating effect): p.o., hexobarbital. On the procedure: The narcosis potentiating effect of the novel compounds of the formula I was tested on groups consisting of 6 mice each. The animals belonging to the control group received an oral dosage of 20 ml/kg of 0.9 percent aqueous sodium chloride solution, whereas the other animals were treated orally with the compound to be tested.

A further data set can be described thus: in vivo. The note with it: mouse, mice, female and male, 18 to 24 g, oral. On the procedure: The acute toxicity of the compounds of the formula I was determined on both female and male mice weighing 18 to 24 g. The compounds were administered orally.
Data set [4] is described as follows: Anticonvulsive effect, inhibition of spasms provoked by pentamethylenetetrazole. It counts as in vivo, white mice. As to conditions: for ED50: Mus musculus, white mice, oral 1 hour before pentamethylenetetrazole 125 mg/kg i.p., read-out: Inhibition of spasms provoked by pentamethylenetetrazole ED50 p.o.; for Therapeutic index LD50/ED50 (pentamethylenetetrazole): mice, p.o. The procedure: The anticonvulsive effect of the compounds was also studied through the inhibition of the spasm provoked by pentamethylenetetrazole [6,7,8,9-tetrahydro-5H-tetrazoloazepine]. 125 mg/kg doses of pentamethylenetetrazole were administered intraperitoneally into white mice divided into groups consisting of 6 animals and the tonic extension spasms of the hind limbs were registered. The compounds to be tested were administered orally 1 hour before the injection of pentamethylenetetrazole.

Data set [5] in a line: Anticonvulsive effect, inhibition of the spasm provoked by electroshock. It counts as in vivo, white mice. As to conditions: for ED50: Mus musculus, white mice, oral 1 hour prior to electroshock (45 mA, 50 Hz, 0.4 sec), read-out: Inhibition of the spasm provoked by electroshock ED50 p.o.; for Therapeutic index LD50/ED50 (electroshock): mice, p.o. The text has this: The anticonvulsive effect of the novel compounds was studied on white mice weighing 20 to 25 g through the inhibition of the spasm developed by electroshock. The electroshock was provoked by means of corneal electrodes with a current intensity of 45 mA. The frequency of the current used was equivalent to 50 Hz, and the duration of each electroshock was 0.4 sec. The complete inhibition of the tonic extension of the hind limbs was taken as criterium of the anticonvulsive effect. The compounds to be tested were administered orally 1 hour prior to the electroshock.

Another data set is described as follows: Tetrabenazine antagonism. As to conditions: for ED50: Mus musculus, oral 30 minutes before tetrabenazine 50 mg/kg i.p., counts at 30, 60, 90 and 120 minutes, read-out: Tetrabenazine antagonism ED50 p.o.; for Therapeutic index LD50/ED50 (tetrabenazine antagonism): p.o. It counts as in vivo. The procedure: The tetrabenazine antagonizing effect of the novel compounds was tested on groups consisting of 10 mice each. The animals belonging to the control group received an oral dosage of 20 ml/kg of 0.9 percent aqueous sodium chloride solution, whereas the other animals were treated orally with the compound to be tested. 30 minutes after the introduction of the active agent or the vehicle, 50 mg/kg of tetrabenazine [3-isobutyl-9,10-dimethoxy-1,2,3,4,6,7-hexahydrobenzo[a]quinolizine-2-one]were administered intraperitoneally. The animals with closed palpebral fissures were counted 30, 60, 90 and 120 minutes after the administration of tetrabenazine. The data obtained in the individual measuring times were added, and the percentage inhibition related to the controls was calculated. Amitriptylin was employed as reference compound.

[6] abbreviates: mice, oral 1 hour before hexobarbital 40 mg/kg i.v., 150 percent prolongation of sleeping time = positive response.

`CCCCC1C(=O)N(c2ccccc2)N(c2ccccc2)C1=O` [phenylbutazone, 4-butyl-1,2-diphenylpyrazolidine-3,5-dione, reference compound]: the median effective dose (ED50) (as a rule, the dose that gives a 50% effect, or the effect in half of the subjects) in data set [1] is 60 mg/kg; in data set [2], 100 mg/kg.
With `CCCC(C)(COC(N)=O)COC(N)=O` [meprobamate, 2-methyl-2-propylpropane-1,3-diol dicarbamate, reference compound], the ED50 in data set [3] (po) was 260 mg/kg. Moreover, the “Therapeutic index LD50/ED50 (narcosis potentiating effect)” value in data set [3] (mice) is 4.2.
Regarding `CCCCCCCCC1=Nc2cnc3ccccc3c2N(C(C)=O)N1` [Example 7, 1-Acetyl-3-octyl-1,2-dihydro-as-triazino[5,6-c]quinoline], the LD50 – broadly, the dose at which mortality reaches 50% – in “in vivo” came out at 2000 mg/kg. For the same molecule, in data set [4], the median effective dose (ED50) stood at 350 mg/kg and the “Therapeutic index LD50/ED50 (pentamethylenetetrazole)” value is given as 5,7. In data set [5], the median effective dose (ED50) amounted to 450 mg/kg and the “Therapeutic index LD50/ED50 (electroshock)” value came to 4.4.
For `CN1C(=O)OC(C)(C)C1=O` [trimethadione, 3,5,5-trimethyloxazolidine-2,4-dione, reference compound] the same measures were 2050 mg/kg, 490 mg/kg, 4,3, 400 mg/kg and 5.3.
In the case of `CCC(CC)C1=Nc2cnc3ccccc3c2N(C(C)=O)N1` [Example 11, 1-Acetyl-3-[1'-ethyl-1'-propyl]-1,2-dihydro-as-triazino[5,6-c]quinoline], in “Tetrabenazine antagonism”, the median effective dose (ED50) is 54 mg/kg and the “Therapeutic index LD50/ED50 (tetrabenazine antagonism)” value is on record as 37.
In the case of `CC(=O)N1NC(CC(C)C)=Nc2cnc3ccccc3c21` [Example 8, 1-Acetyl-3-isobutyl-1,2-dihydro-as-triazino[5,6-c]quinoline], the 50% lethal dose (LD50) in the data set “in vivo” was determined as 2000 mg/kg. Besides, in “Tetrabenazine antagonism”, the ED50 came out at 20 mg/kg and the “Therapeutic index LD50/ED50 (tetrabenazine antagonism)” value was 100. Further, in data set [3] (setting [6]), the ED50 was 70 mg/kg. Moreover, in data set [3] (mice), the “Therapeutic index LD50/ED50 (narcosis potentiating effect)” value is reported as 28.5. Besides, in data set [4], the ED50 stood at 72 mg/kg and the “Therapeutic index LD50/ED50 (pentamethylenetetrazole)” value is 27,8. In addition, in data set [5], the ED50 was found to be 200 mg/kg and the “Therapeutic index LD50/ED50 (electroshock)” value was 10.
Take `CC(=O)N1NC(CCC(C)C)=Nc2cnc3ccccc3c21` [Example 10, 1-Acetyl-3-(3'-methyl-1'-butyl)-1,2-dihydro-as-triazino[5,6-c]quinoline]: in the data set “in vivo”, the LD50 came to 2000 mg/kg. Further, in the data set “Tetrabenazine antagonism”, the ED50 is 14.5 mg/kg and the “Therapeutic index LD50/ED50 (tetrabenazine antagonism)” value amounted to 138. In addition, in data set [1], the ED50 was found to be 100 mg/kg and the “Therapeutic index LD50/ED50 (analgesic effect)” value came out at 20. Also, in data set [2], the ED50 came to 200 mg/kg and the “Therapeutic index LD50/ED50 (antiphlogistic effect)” value was 10. Moreover, the 50% effective dose (ED50) in data set [3] (setting [6]) came out at 100 mg/kg. Moreover, the “Therapeutic index LD50/ED50 (narcosis potentiating effect)” value in data set [3] (mice) is reported as 20.
`CC(=O)N1NC(C(C)(C)C)=Nc2cnc3ccccc3c21` [Example 9, 1-Acetyl-3-tert.-butyl-1,2-dihydro-as-triazino[5,6-c]quinoline] returned an LD50 in the data set “in vivo” of 2000 mg/kg. Moreover, in data set [4], the ED50 stood at 165 mg/kg and the “Therapeutic index LD50/ED50 (pentamethylenetetrazole)” value is reported as 12.
As to `CC(=O)N1C(c2ccccc2)=NNc2c1cnc1ccccc21` [Example 3, 4-Acetyl-3-phenyl-1,4-dihydro-as-triazino[5,6-c]quinoline], the median lethal dose (LD50) in “in vivo” was found to be 2000 mg/kg. For the same molecule, the median effective dose (ED50) in data set [3] (setting [6]) was 150 mg/kg. The “Therapeutic index LD50/ED50 (narcosis potentiating effect)” value in data set [3] (mice) is recorded as 13.3.
As to `CC(=O)Nc1ccc(O)cc1` [paracetamole, p-hydroxyacetanilide, reference compound], the 50% lethal dose (LD50) in the data set “in vivo” came out at 540 mg/kg. Moreover, in data set [1], the ED50 turned out to be 180 mg/kg and the “Therapeutic index LD50/ED50 (analgesic effect)” value is reported as 3.
For the molecule `CN(C)CCC=C1c2ccccc2CCc2ccccc21` [amitriptylin, 5-(3-dimethylaminopropylidene)-10,11-dihydro-5H-dibenzo[a,d]cycloheptene, reference compound], in the data set “Tetrabenazine antagonism”, the ED50 was found to be 12 mg/kg and the “Therapeutic index LD50/ED50 (tetrabenazine antagonism)” value is 19.
Regarding `CCCCC1=Nc2cnc3ccccc3c2N(C(C)=O)N1` [Example 6, 1-Acetyl-3-butyl-1,2-dihydro-as-triazino[5,6-c]quinoline], in the data set “in vivo”, the LD50 came to 2000 mg/kg. In data set [1], the median effective dose (ED50) came to 320 mg/kg and the “Therapeutic index LD50/ED50 (analgesic effect)” value amounted to 6. Besides, in data set [2], the ED50 was found to be 36 mg/kg and the “Therapeutic index LD50/ED50 (antiphlogistic effect)” value is reported as 55. Further, the median effective dose (ED50) in data set [3] (setting [6]) came to 125 mg/kg. In addition, the “Therapeutic index LD50/ED50 (narcosis potentiating effect)” value in data set [3] (mice) is listed as 16. Besides, in data set [4], the ED50 turned out to be 90 mg/kg and the “Therapeutic index LD50/ED50 (pentamethylenetetrazole)” value is 22,2. In data set [5], the ED50 worked out at 160 mg/kg and the “Therapeutic index LD50/ED50 (electroshock)” value is recorded as 12.5.
`CCCCCC1=Nc2cnc3ccccc3c2N(C(C)=O)N1` [Example 1, 1-acetyl-3-amyl-1,2-dihydro-as-triazino[5,6-c]quinoline] came in with an LD50 in the data set “in vivo” of 2000 mg/kg. The ED50 amounted to 125 mg/kg in data set [1], 100 mg/kg in data set [2] and 200 mg/kg in data set [3] (setting [6]). Also, the “Therapeutic index LD50/ED50 (analgesic effect)” value in data set [1] is listed as 16. In data set [2], the “Therapeutic index LD50/ED50 (antiphlogistic effect)” value worked out at 20. Further, the “Therapeutic index LD50/ED50 (narcosis potentiating effect)” value in data set [3] (mice) is 10.
